The values below come from ChEMBL document CHEMBL1133916, “The discovery of anthranilic acid-based MMP inhibitors. Part 2: SAR of the 5-position and P1(1) groups” (Bioorg Med Chem Lett, 2001).

The target in assay [1] is T1, Interstitial collagenase (Homo sapiens) (UniProt P03956).
T1 sequence (whole entry): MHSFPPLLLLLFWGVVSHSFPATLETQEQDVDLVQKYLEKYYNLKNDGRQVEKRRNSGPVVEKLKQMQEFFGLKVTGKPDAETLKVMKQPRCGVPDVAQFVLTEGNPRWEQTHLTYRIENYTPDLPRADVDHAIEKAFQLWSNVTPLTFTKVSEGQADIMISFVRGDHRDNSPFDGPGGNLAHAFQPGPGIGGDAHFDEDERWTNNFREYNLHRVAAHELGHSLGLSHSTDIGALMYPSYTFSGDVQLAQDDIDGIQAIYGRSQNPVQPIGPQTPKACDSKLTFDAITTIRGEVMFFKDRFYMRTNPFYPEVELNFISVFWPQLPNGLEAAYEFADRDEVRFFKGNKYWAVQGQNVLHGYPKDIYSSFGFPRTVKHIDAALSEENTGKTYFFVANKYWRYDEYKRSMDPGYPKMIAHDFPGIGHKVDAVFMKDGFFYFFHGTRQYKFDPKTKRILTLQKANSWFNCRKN
The assay can be described thus: Inhibition of Matrix metalloprotease-1 at 10 uM.

The target of assay [2] is T2, Matrix metalloproteinase-9 (Homo sapiens, UniProt P14780). The assay can be described thus: In vitro ability to inhibit matrix metalloprotease-9.
Assay [3] has as its target T3, Disintegrin and metalloproteinase domain-containing protein 17 (Homo sapiens, UniProt P78536). The assay can be described thus: In vitro inhibition of TNF-alpha converting enzyme (TACE).
In assay [4] the target is T4, Collagenase 3 (Homo sapiens, UniProt P45452).
The test system of assay [5] is Rattus norvegicus. Kind of assay: Percent inhibition of collagen degradation at an oral dose of 50 mg/kg/bid in an in vivo rat sponge-wrapped cartilage model. The class given is functional.
The species entered for assay [6] is Bos taurus. Kind of assay: Percent inhibition of cartilage degradation at 1 uM in a bovine articular cartilage explant assay. Type of assay: functional. Conditions: Cartilage tissue.
Assay [7] concerns the target T3, Disintegrin and metalloproteinase domain-containing protein 17. The assay can be described thus: Inhibition of TNF-alpha converting enzyme (TACE) at 1 uM.
The target in assay [8] is T1, Interstitial collagenase (Homo sapiens). Kind of assay: Inhibition of Matrix metalloprotease-1 at 1 uM.
Assay [9] addresses T5, Interstitial collagenase (Homo sapiens, UniProt P03956).
T5 sequence (P03956 whole entry): T1 sequence (whole entry)
Kind of assay: In vitro inhibition of Matrix metalloprotease-1.

In assay [10] the target is T2, Matrix metalloproteinase-9. The assay can be described thus: Inhibition of Matrix metalloprotease-9 at 1 uM.
Assay [11] concerns the target T4, Collagenase 3. Kind of assay: Inhibition of matrix metalloprotease-13. As to conditions: concentration not given here.

T2 sequence (P14780 whole entry, the tested form may be a part): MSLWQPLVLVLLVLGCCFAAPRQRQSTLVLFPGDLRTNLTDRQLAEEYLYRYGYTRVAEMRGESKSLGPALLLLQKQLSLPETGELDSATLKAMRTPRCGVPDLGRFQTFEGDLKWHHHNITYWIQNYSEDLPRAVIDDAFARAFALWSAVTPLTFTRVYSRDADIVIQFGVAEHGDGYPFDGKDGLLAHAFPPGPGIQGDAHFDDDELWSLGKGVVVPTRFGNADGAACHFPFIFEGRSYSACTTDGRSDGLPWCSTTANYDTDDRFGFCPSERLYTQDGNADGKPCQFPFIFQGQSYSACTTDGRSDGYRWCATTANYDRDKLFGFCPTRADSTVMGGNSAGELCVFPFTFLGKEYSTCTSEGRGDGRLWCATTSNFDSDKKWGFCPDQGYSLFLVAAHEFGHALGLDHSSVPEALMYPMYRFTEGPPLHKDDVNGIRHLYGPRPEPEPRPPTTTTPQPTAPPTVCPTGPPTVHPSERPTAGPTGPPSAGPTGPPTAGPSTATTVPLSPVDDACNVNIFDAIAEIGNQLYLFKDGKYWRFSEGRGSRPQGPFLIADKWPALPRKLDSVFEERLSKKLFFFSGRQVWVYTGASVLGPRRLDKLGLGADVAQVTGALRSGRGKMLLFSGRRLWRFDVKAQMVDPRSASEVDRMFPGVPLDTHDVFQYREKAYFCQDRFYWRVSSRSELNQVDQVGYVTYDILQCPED
T3 sequence (P78536 whole entry, the tested form may be a part): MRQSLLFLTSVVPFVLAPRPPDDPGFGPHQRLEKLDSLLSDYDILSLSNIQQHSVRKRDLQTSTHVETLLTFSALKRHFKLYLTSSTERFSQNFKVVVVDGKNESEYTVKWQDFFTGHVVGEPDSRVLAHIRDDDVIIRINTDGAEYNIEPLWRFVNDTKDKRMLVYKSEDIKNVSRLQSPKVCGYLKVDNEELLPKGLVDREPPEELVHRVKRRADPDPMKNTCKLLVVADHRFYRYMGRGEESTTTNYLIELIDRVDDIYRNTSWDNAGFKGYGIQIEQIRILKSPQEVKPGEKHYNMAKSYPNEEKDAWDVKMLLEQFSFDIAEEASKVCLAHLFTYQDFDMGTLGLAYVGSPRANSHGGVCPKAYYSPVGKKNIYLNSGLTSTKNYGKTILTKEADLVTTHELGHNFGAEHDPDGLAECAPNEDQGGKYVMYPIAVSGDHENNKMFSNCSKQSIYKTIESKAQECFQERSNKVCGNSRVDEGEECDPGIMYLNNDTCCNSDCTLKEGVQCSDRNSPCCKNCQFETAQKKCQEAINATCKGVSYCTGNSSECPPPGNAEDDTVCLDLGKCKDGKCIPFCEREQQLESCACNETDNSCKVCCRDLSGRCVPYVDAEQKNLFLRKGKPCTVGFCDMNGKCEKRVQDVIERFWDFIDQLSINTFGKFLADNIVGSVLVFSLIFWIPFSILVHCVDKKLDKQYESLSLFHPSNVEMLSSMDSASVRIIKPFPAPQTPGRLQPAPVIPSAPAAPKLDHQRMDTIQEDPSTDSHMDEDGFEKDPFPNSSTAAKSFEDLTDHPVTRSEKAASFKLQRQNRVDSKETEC

For the molecule `Cc1cc(Br)cc(C(=O)NO)c1N(C)S(=O)(=O)c1ccc(-c2ccc(OCc3ccccc3)cc2)cc1`, the inhibition in assay [1] is 57%. Moreover, the IC50 is 0.189 µM in [2], 0.057 µM in assay [3] and 0.163 µM in [4].
`COc1ccc(S(=O)(=O)N(Cc2cccnc2)[C@@H](C(=O)NO)C(C)C)cc1` [CGS-27023A] gave an inhibition in vivo at 50 mg/kg in assay [5] of 51%. Besides, the IC50 in [3] amounted to 0.231 µM. In addition, the inhibition at 1 µM in [6] turned out to be 70%.
Take `CN(c1ccccc1C(=O)NO)S(=O)(=O)c1ccc(Oc2ccncc2)cc1`: the figures for the inhibition in assay [7] and in assay [8] were 22% and 48%, respectively. The IC50 amounted to 0.153 µM in assay [2] and 0.038 µM in assay [4].
Turning to `COc1ccc(S(=O)(=O)N(Cc2cccnc2)c2c(C(=O)NO)cc(C)cc2-c2ccccc2)cc1`, the IC50 in assay [2] was determined as 0.007 µM; in [3], 0.133 µM; in assay [9], 0.103 µM; in assay [4] it was 0.003 µM.
With `COc1ccc(-c2ccc(S(=O)(=O)N(Cc3cccnc3)c3c(C)cccc3C(=O)NO)cc2)cc1`, in [7], the inhibition worked out at 4%. In addition, the IC50 in assay [2] was 0.152 µM; in [9], 2.27 µM; in assay [4], 0.018 µM.
For `Cc1cc(Br)cc(C(=O)NO)c1N(C)S(=O)(=O)c1ccc(-c2ccc(OCc3cccnc3)cc2)cc1`, the inhibition in assay [1] is 42%; in assay [10], 28%; in assay [11], 48%. Besides, in assay [3], the IC50 is 0.028 µM.
`COc1ccc(S(=O)(=O)N(Cc2cccnc2)c2c(C)cc(-c3ccc4ccccc4c3)cc2C(=O)NO)cc1`: the IC50 came to 0.002 µM in assay [2], 0.194 µM in assay [3], 0.745 µM in assay [9] and 0.001 µM in assay [4]. The molecule further showed an inhibition at 1 µM in assay [6] of 83%.
In the case of `Cc1cc(C)c(N(C)S(=O)(=O)c2ccc(Sc3ccccc3)cc2)c(C(=O)NO)c1`, the half-maximal inhibitory concentration (IC50) was found to be 0.008 µM in [2], 0.727 µM in assay [3], 1.31 µM in [9] and 0.003 µM in assay [4].
Take `COc1ccc(S(=O)(=O)N(Cc2cccnc2)c2c(C)cc(N(C)C)cc2C(=O)NO)cc1`: the IC50 is 0.002 µM in assay [2], 0.633 µM in [3], 0.074 µM in [9] and 0.039 µM in assay [4].
With `Cc1cccc(C(=O)NO)c1N(C)S(=O)(=O)c1ccc(Oc2ccncc2)cc1`, the inhibition in assay [7] worked out at 32%. Further, the IC50 in [2] is 0.007 µM. Besides, the inhibition in vivo at 50 mg/kg in assay [5] came out at 35%. This molecule also returned an inhibition at 1 µM in assay [6] of 83%.
`Cc1cc(Br)cc(C(=O)NO)c1N(C)S(=O)(=O)c1ccc(Oc2ccc(C(C)(C)C)cc2)cc1`: the results for the inhibition in assay [7] and in assay [8] were 19% and 25%, respectively. For the same molecule, the results for the IC50 in assay [2] and in [4] were 0.125 µM and 0.044 µM, respectively.
For `COc1ccc(S(=O)(=O)N(Cc2cccnc2)c2c(C)cc(-c3cccc(C(F)(F)F)c3)cc2C(=O)NO)cc1`, the IC50 in assay [2] came to 0.001 µM.
For the molecule `COc1ccc(S(=O)(=O)N(Cc2cccnc2)c2c(C(=O)NO)cc(C)cc2-c2ccco2)cc1`, the values for the IC50 in [2], in assay [9] and in [4] were 0.008 µM, 0.018 µM and 0.001 µM, respectively.
`Cc1cc(C)c(N(Cc2ccccc2)S(=O)(=O)c2ccc(Oc3ccccc3)cc2)c(C(=O)NO)c1`: the inhibition in [7] was 37%. Further, the IC50 in assay [2] came out at 0.004 µM; in assay [9], 0.376 µM; in [4], 0.006 µM.
In [1], `Cc1cc(Br)cc(C(=O)NO)c1N(Cc1ccccc1)S(=O)(=O)c1ccc(OCc2ccccc2)cc1` displayed an inhibition of 18%. Moreover, the figures for the IC50 in assay [2] and in assay [3] were 3.45 µM and 0.285 µM, respectively.
Consider `Cc1cc(C)c(N(Cc2ccccc2)S(=O)(=O)c2ccc(OCc3ccccc3)cc2)c(C(=O)NO)c1`, for which the inhibition in assay [8] came to 25%.
As for `COc1ccc(S(=O)(=O)N(Cc2cccnc2)c2c(C)cc(Br)cc2C(=O)NO)cc1`, the IC50 in assay [3] was 0.043 µM; in assay [9], 0.124 µM.
`COc1ccc(S(=O)(=O)N(Cc2cccnc2)c2c(C)cc(-c3ccccc3)cc2C(=O)NO)cc1` displayed an IC50 in assay [4] of 0.004 µM. The inhibition at 1 µM in assay [6] worked out at 70%.
Molecule `CCN(CC)Cc1cc(C)c(N(Cc2ccccc2)S(=O)(=O)c2ccc(OC)cc2)c(C(=O)NO)c1` registered an inhibition in assay [7] of 44%.
Molecule `Cc1cc(Br)cc(C(=O)NO)c1N(C)S(=O)(=O)c1ccc(-c2ccc(OCc3nccs3)cc2)cc1` came in with an inhibition in assay [1] of 45%. For the same molecule, the figures for the IC50 in assay [2], in assay [3] and in assay [4] were 0.952 µM, 0.023 µM and 0.661 µM, respectively.
In the case of `Cc1cccc(C(=O)NO)c1N(Cc1cccnc1)S(=O)(=O)c1ccc(-c2ccc3c(c2)OCO3)cc1`, the inhibition in assay [7] was 9%; in assay [1], 37%; in [10], 43%.
In turn, `CCCCOc1ccc(S(=O)(=O)N(Cc2ccccc2)c2c(C)cc(C)cc2C(=O)NO)cc1` returned an inhibition in assay [8] of 33%.
In the case of `COc1ccc(S(=O)(=O)N(Cc2cccnc2)c2c(C)cc(C)cc2C(=O)NO)cc1`, inhibition in assay [3] was half-maximal at 0.07 µM (IC50).
`COc1ccc(S(=O)(=O)N(Cc2cccnc2)c2c(C)cccc2C(=O)NO)cc1`: the IC50 in [3] worked out at 0.231 µM. Compared with the last molecule, the IC50 is about 3.3-fold higher.
On to `Cc1cc(Br)cc(C(=O)NO)c1N(C)S(=O)(=O)c1ccc(-c2ccc(OCc3ccsc3)cc2)cc1`, for which the IC50 in [2] was determined as 0.232 µM; in assay [3] it was 0.056 µM; in assay [9] it was 4.64 µM; in assay [4] it was 0.142 µM.
